Measured values from patent publication US20110052534A1, “Imidazopyridazine Compounds for Treating Viral Infections” (priority 2009, published 2011).
Counter-ions that a name gives are not always drawn. Like-named read-outs stand apart in the source and are kept apart here.

Legend:
Format in all cases: cell-based
[1] = tested on: HCV genotype 1a H77 NS3-5B bicistronic subgenomic replicon; experiment: microbe, parasite or virus in culture; conditions: Hepatitis C virus, luciferase activity after 48 hours, read-out: HCV Genotype 1A Replicon EC50
Source text: (§1) Two cell lines were used for screening of compounds for inhibiting HCV RNA replication (genoytype 1a and 1b). Genotype la replicon cells, are a Huh-7 derived cell line bearing the genotype 1a H77NS3-5B bicistronic subgenomic replicon. See, Blight, et al., J. Virol. (2003) 77(5): 3181-3190.
(§2) The genotype 1a replicon contains several adaptive mutations (NS4B Q31H, NS5A K68R, NS5A S232I), the luciferase gene and encodes for neomycin resistance. The genotype 1b replicon, also referred to as the ET replicon, is stably transfected with RNA transcripts harboring a I389luc-ubi-neo/NS3-3′/ET replicon with firefly luciferase-ubiquitin-neomycin phosphotransferase fusion protein and EMCV-IRES driven NS3-5B polyprotein containing the cell culture adaptive mutations (E1202G; T12801; K1846T) See, Kreiger, et al., Journal of Virology 75:4614-4624 (2001). Both cell lines were grown in DMEM, supplemented with 10% fetal calf serum, 2 mM Glutamine, Penicillin (100 IU/mL)/Streptomycin (100 μg/mL), 1×nonessential amino acids, and 250 μg/mL G418 (“Geneticin”). They were all available through Life Technologies (Bethesda, Md.). The cells were plated at 0.5×10^4 cells/well in 384 well plates containing compounds. The final concentration of compounds ranged between 0.1 nM to 50 μM and the final DMSO concentration of 0.5%.
(§3) Luciferase activity was measured 48 hours later by adding a Steady glo (Promega, Madison, Wis.). Percent inhibition of replication data was plotted relative to no compound control. Under the same condition, cytotoxicity of the compounds was determined using cell titer glo (Promega, Madison, Wis.). EC50 values were determined from a 10 point dose response curve using 2-4 fold serial dilutions for each compound, which spans a concentration range of at least a 1000 fold. Replicon EC50 values, the concentration of compound required to inhibit 50% of the assay response, were calculated by curve fitting data to the Hill equation, using a non-linear least-squares curve-fitting program. The software tested the data for quality and rejected compounds with high and low activity before fitting the equation below.
(§4) Analysis was performed using an XC50 module and BioAssay Enterprise (Cambridge Soft).

[2] = tested on: HCV genotype 1b replicon (ET replicon); experiment: microbe, parasite or virus in culture; conditions: Hepatitis C virus, luciferase activity after 48 hours, read-out: HCV Genotype 1B Replicon EC50
Source text: as §1, §2, §3, §4

in vitro = conditions: human; Table 3; cytotoxicity, cell titer glo, same condition as replicon assay; read-out: HCV Genotype 1B CC50
Source text: as §2, §3

Structure (SMILES)	EC50 ([1]; Table 2) [nM]	EC50 ([2]; Table 2) [nM]	CC50 (in vitro) [nM]	EC50 ([1]; Table 3) [nM]	EC50 ([2]; Table 3) [nM]
CCCOc1ccc(-c2ccc(C(C(=O)OC(C)C)n3cc4nc(-c5cccc(F)c5F)nc-4cn3)cn2)c(C(F)(F)F)c1 (centres unmarked) [Compound 42, 1-Methylethyl [2-(2,3-difluorophenyl)-5H-imidazo[4,5-d]pyridazin-5-yl]{6-[4-(propyloxy)-2-(trifluoromethyl)phenyl]-3-pyridinyl}acetate]	980	510	–	–	–
CCCOc1ccc(-c2ncc(C(C(=O)OC)n3cc4nc(-c5cccc(F)c5F)nc-4cn3)cn2)c(C(F)(F)F)c1 (centres unmarked) [Compound 58, Methyl [2-(2,3-difluorophenyl)-5H-imidazo[4,5-d]pyridazin-5-yl]{2-[4-(propyloxy)-2-(trifluoromethyl)phenyl]-5-pyrimidinyl}acetate]	2600	270	–	–	–
CCCOc1ccc(-c2cc(C(C(=O)OCCCCN(C)C)n3cc4nc(-c5cccc(F)c5F)nc-4cn3)on2)c(C(F)(F)F)c1 (centres unmarked) [Compound 173, 4-(Dimethylamino)butyl [2-(2,3-difluorophenyl)-5H-imidazo[4,5-d]pyridazin-5-yl]{3-[4-(propyloxy)-2-(trifluoromethyl)phenyl]-5-isoxazolyl}acetate dihydrochloride]	20	3	–	–	–
COC(=O)C(c1cc(-c2ccc(C3CC3)cc2C(F)(F)F)no1)n1cc2nc(-c3cccc(F)c3F)nc-2cn1 (centres unmarked) [Compound 178, Methyl {3-[4-cyclopropyl-2-(trifluoromethyl)phenyl]-5-isoxazolyl}[2-(2,3-difluorophenyl)-5H-imidazo[4,5-d]pyridazin-5-yl]acetate]	–	–	25000	50	10
O=C(OCCOCCO)C(c1cc(-c2ccc(C3CC3)cc2C(F)(F)F)no1)n1cc2nc(-c3cccc(F)c3F)nc-2cn1 (centres unmarked) [Compound 179, 2-[(2-hydroxyethyl)oxy]ethyl {3-[4-cyclopropyl-2-(trifluoromethyl)phenyl]-5-isoxazolyl}[2-(2,3-difluorophenyl)-5H-imidazo[4,5-d]pyridazin-5-yl]acetate]	–	–	50000	79	13
CC(CO)(CO)COC(=O)C(c1cc(-c2ccc(C3CC3)cc2C(F)(F)F)no1)n1cc2nc(-c3cccc(F)c3F)nc-2cn1 (centres unmarked) [Compound 180, 3-hydroxy-2-(hydroxymethyl)-2-methylpropyl {3-[4-cyclopropyl-2-(trifluoromethyl)phenyl]-5-isoxazolyl}[2-(2,3-difluorophenyl)-5H-imidazo[4,5-d]pyridazin-5-yl]acetate]	–	–	–	79	8
O=C(OCCCO)C(c1cc(-c2ccc(C3CC3)cc2C(F)(F)F)no1)n1cc2nc(-c3cccc(F)c3F)nc-2cn1 (centres unmarked) [Compound 182, 3-Hydroxypropyl {3-[4-cyclopropyl-2-(trifluoromethyl)phenyl]-5-isoxazolyl}[2-(2,3-difluorophenyl)-5H-imidazo[4,5-d]pyridazin-5-yl]acetate]	–	–	> 50000	63	13
CCCOC(=O)C(c1cc(-c2ccc(C3CC3)cc2C(F)(F)F)no1)n1cc2nc(-c3cccc(F)c3F)nc-2cn1 (centres unmarked) [Compound 184, Propyl {3-[4-cyclopropyl-2-(trifluoromethyl)phenyl]-5-isoxazolyl}[2-(2,3-difluorophenyl)-5H-imidazo[4,5-d]pyridazin-5-yl]acetate]	–	–	25000	79	13
O=C(OCCCOP(=O)(O)O)C(c1cc(-c2ccc(C3CC3)cc2C(F)(F)F)no1)n1cc2nc(-c3cccc(F)c3F)nc-2cn1 (centres unmarked) [Compound 186, 3-(phosphonooxy)propyl {3-[4-cyclopropyl-2-(trifluoromethyl)phenyl]-5-isoxazolyl}[2-(2,3-difluorophenyl)-5H-imidazo[4,5-d]pyridazin-5-yl]acetate]	–	–	50000	79	10
